Test results published in article PMC6271609, “Secondary Metabolites from Vietnamese Marine Invertebrates with Activity against Trypanosoma brucei and T. cruzi” (Molecules, 2014).
“Also recorded” adds a separate entry of the source. Read-outs that look alike come from different tables or passages of the source.

What was measured:
[1] = system: T. brucei strain 427 bloodstream forms; assay: Anti-trypanosomal activity on T. brucei, resazurin dose response; assay type: cell-based, Trypanosoma brucei; details: for SI (Selectivity index): relative to HEK293T and HepG2 cells vs T. brucei
Procedure: T. brucei strain 427 bloodstream forms were cultivated at 37 °C with 5% CO2 in HMI-9 medium supplemented with 10% FBS. Cultivated parasites (2,500) were seeded in 384 well plates with the natural compounds and incubated for 3 days. After the incubation, the parasites were exposed to 120 µM of resazurin sodium salt (10.0 µL of a 720 µM solution in water) for 5 h. Then, the parasites were fixed with 4% PFA and the assay plates were read by Victor 3™ (PerkinElmer, Waltham, MA, USA) at 530 nmEx/590 nmEm. Pentamidine was used as a reference drug and DMSO 0.5% was used as a drug-negative control.
(§1) The acquired images from the high content intracellular T. cruzi screening were subjected to in-house software to quantify cell numbers, parasite numbers, and infection ratio as previously described. Each compound’s activity was normalized based on values of drug positive and negative control (120 nM of pentamidine for T. brucei and T. cruzi assays, 83.0 µM of chlorpromazine for cytotoxicity, and DMSO as 0% drug activity for negative control). Dose response curves were fitted by sigmoidal dose-response with variable slope, equation described as Y = Bottom + (Top − Bottom)/(1 + 10^(LogEC5 − X) − HillSlpe) using GraphPad Prism 6 Software (GraphPad Software, Suite 230 La Jolla, CA, USA).

[2] = Cytotoxicity assay, resazurin, HepG2; assay type: cell-based, human; details: human
Procedure: (§2) HEK293T and HepG2 cells were cultured at 37 °C with 5% CO2 in Dulbecco’s modified eagle medium containing 10% FBS. Both cell types were plated individually in 384 well plates for testing the natural compounds at 3-fold dilution from 100 µM in 10-points concentration and incubated for 3 days. To determine viability, 10.0 µL of a 280 µM solution of resazurin sodium salt in water was added to the cells in the assay plate for at least 5 h (final concentration, 40.0 µM of resazurin) and resazurin reduction was measured with a Victor 3^TM fluorimeter (PerkinElmer) at 530 nmEx/590 nmEm.
as §1

[3] = Cytotoxicity assay, resazurin, HEK293T; assay type: cell-based, human; details: human
Procedure: as §2, §1

U2OS human cell = assay: Host cell number in the T. cruzi high content image assay; assay type: cell-based; details: 50.0 μM, 48 h, U2OS infected with T. cruzi
Procedure: (§3) The assay for activity against T. cruzi Y strain was performed as previously described. Briefly, T. cruzi parasites were maintained in form of Tissue Culture Trypomastigote (TCT) by circulation in LLC-MK2 cell line (CCL-7, ATTC, Manassas, VA, USA). Seven days after the infection, the supernatant containing TCT parasites was collected and used to reinfect new cultures of LLC-MK2. The U2OS human cell (HTB-96, ATCC), cultivated in DMEM-high glucose media supplemented with 10% heat inactivated FBS, was used for the in vitro assay preparation. The cells were infected with the TCT form of T. cruzi. A homogeneous mixture of parasites and cells in DMEM-low glucose media, supplemented with 2% heat inactivated FBS, and was seeded into 384-well plates at 50.0 µL/well. The test compounds (final concentration of 50.0 µM) were added in 10.0 µL of 6% DMSO (final concentration, 1% DMSO) and the cells were incubated for 48 h at 37 °C, 5% CO2. After the incubation, the cells and parasites were fixed with 4% PFA and stained with 5.0 µM Draq5. Fluorescent images were acquired from each assay well using an Operetta microscope (Perkin Elmer).
The acquired images from the high content intracellular T. cruzi screening were subjected to in-house software to quantify cell numbers, parasite numbers, and infection ratio as previously described. […]

HepG2 cells = assay: Cytotoxicity assay, resazurin, HepG2; assay type: cell-based, human; details: pure compounds up to 100 µM
Procedure: as §2, §1

HEK293T cells = assay: Cytotoxicity assay, resazurin, HEK293T; assay type: cell-based, human; details: pure compounds up to 100 µM
Procedure: as §2, §1

[4] = system: intracellular amastigotes of T. cruzi Y strain; assay: Anti-trypanosomal activity on intracellular T. cruzi Y strain, high content image assay; assay type: cell-based, Trypanosoma cruzi; details: for activity against intracellular T. cruzi (in words): 50.0 µM; for decrease of parasite survival / reduction of parasites growth compared to the DMSO control: 50.0 μM, 48 h, U2OS host cells
Procedure: as §3, §1

Plasmodium falciparum = system: Plasmodium falciparum; parameters: method as in PMID 21157686; details: cited from earlier work
T. brucei rhodesiense = system: T. brucei rhodesiense; parameters: method as in PMID 21157686; details: cited from earlier work
[5] = Trypanosoma brucei, 72 h, bloodstream forms, 3 days incubation, resazurin, read-out: T. brucei EC50 Values
[6] = HepG2 cells, HepG2, 3 days, highest concentration 100 µM, read-out: Cytotoxicity CC50 Values HepG2
[7] = HEK293T cells, HEK293T, 3 days, highest concentration 100 µM, read-out: Cytotoxicity CC50 Values HEK293T

For `CC(C)CCC[C@@H](C)[C@H]1CC[C@H]2C3=C(CC[C@]12C)[C@@]1(C)CC[C@H](O)C[C@]1(O)[C@H](O)[C@H]3O` [Compound 4, cholest-8-ene-3β,5α,6β,7α-tetraol], the EC50 [1, 5] was 14.6 ± 1.36 µM, the “SI (Selectivity index)” value [1] was greater than 6.8 and the CC50 at 3 days [2] was greater than 100 µM. The CC50 at 3 days [3] was greater than 100 µM.
For `CC(C)[C@@H](C)CC[C@@H](C)[C@H]1CC[C@H]2[C@@H]3CCC4=CC(=O)CC[C@]4(C)[C@H]3CC[C@]12C` [Compound 2, (24S)-ergost-4-ene-3-one], the EC50 [1, 5] was 5.47 ± 0.27 µM, the “SI (Selectivity index)” value [1] was greater than 18.3 and the CC50 at 3 days [2, 6] was greater than 100 µM. The CC50 at 3 days [3, 7] was greater than 100 µM.
For `C=C1CO[C@H]2/C=C(\C)CC[C@@H]3O[C@]3(C)CC/C=C(\C)CC[C@@]12O` [Compound 1, laevigatol B], the “reduction of the host cells” value (U2OS human cell) was 33%, the EC50 [1, 5] was 5.34 ± 0.47 µM and the EC50 ([1]; Trypanosoma brucei, bloodstream forms, resazurin, read-out: T. brucei EC50) was 1.69 ± 0.12 µg/mL. For the same compound, the “SI (Selectivity index)” value [1] was greater than 18.7, the “cytotoxicity on HepG2 (in words)” value (HepG2 cells) was “did not display cytotoxicity” and the CC50 at 3 days [2, 6] was greater than 100 µM. The CC50 at 3 days [3, 7] was greater than 100 µM, the “cytotoxicity on HEK293T (in words)” value (HEK293T cells) was “did not display cytotoxicity” and the “activity against intracellular T. cruzi (in words)” value [4] was “significant activity; also recorded: significant inhibitory effects; also recorded: active”. For the same compound, the “decrease of parasite survival / reduction of parasites growth compared to the DMSO control” value [4] was 84.8%.
With `CN(C)CCCN1c2ccccc2Sc2ccc(Cl)cc21` [Chlorpromazine, reference compound] the CC50 at 3 days [2, 6] was 16.5 ± 0.45 µM and the CC50 at 3 days [3, 7] was 19.9 ± 3.48 µM.
For `CC(C)CCC[C@@H](C)[C@H]1CC[C@@H]2[C@]1(C)CC[C@@H]1[C@@]3(C)CC[C@H](O)C[C@@H]3[C@@H](C=O)[C@]12O` [Compound 3, astropectenol A], the EC50 [1, 5] was 1.17 ± 0.14 µM, the EC50 ([1]; bloodstream forms, 3 days incubation, resazurin, read-out: T. brucei EC50 Values) was 1.57 ± 0.14 µM and the “SI (Selectivity index)” value [1] was greater than 63.7. It also gave a CC50 at 3 days [2, 6] greater than 100 µM and a CC50 at 3 days [3, 7] greater than 100 µM.
For `N=C(N)c1ccc(OCCCCCOc2ccc(C(=N)N)cc2)cc1` [Pentamidine, reference compound], the EC50 [1, 5] was 0.015 ± 0.003 µM, the “SI (Selectivity index)” value [1] was less than 26.7 and the “SI (Selectivity index)” value ([1]; listed as pentamidine) was 26.7. It also gave a CC50 at 3 days [2, 6] of less than 0.4 µM and a CC50 at 3 days [3, 7] of less than 0.4 µM.
For `CC(C)CCC[C@@H](C)[C@H]1CCC2=C3[C@H](O)C[C@H]4C[C@@H](O)CC[C@]4(C)[C@H]3CC[C@@]21C` [Compound 5, 5α-cholest-8(14)-ene-3β,7α-diol], the “reduction of the host cells” value (U2OS human cell) was “not significantly reduced”, the EC50 ([1]; Trypanosoma brucei, 72 h, read-out: T. brucei EC50 Values) was greater than 30 µM and the “activity against T. brucei (in words)” value ([1]; bloodstream forms) was “inactive”. For the same compound, the “cytotoxicity on HepG2 (in words)” value (HepG2 cells) was “did not show any cytotoxicity”, the CC50 at 3 days ([2]; HepG2, 3 days, highest concentration 100 µM, read-out: Cytotoxicity CC50 Values HepG2) was greater than 100 µM and the CC50 at 3 days ([3]; HEK293T, 3 days, highest concentration 100 µM, read-out: Cytotoxicity CC50 Values HEK293T) was greater than 100 µM. The “cytotoxicity on HEK293T (in words)” value (HEK293T cells) was “did not show any cytotoxicity”, the “activity against intracellular T. cruzi (in words)” value [4] was “significant activity; also recorded: significant inhibitory effects; also recorded: active” and the “decrease of parasite survival / reduction of parasites growth compared to the DMSO control” value [4] was 97.1%.
In the case of `C/C1=C\CC/C(C)=C/C[C@](O)(C(C)C)CC/C(C)=C/CC1` [serratol], the “activity against Plasmodium falciparum (in words)” value (Plasmodium falciparum) is given as “active” and the “activity against T. brucei rhodesiense (in words)” value (T. brucei rhodesiense) is given as “active”.
